According to BindingDB's records for doi:10.1021/jm960728j (Uppsala University, 1997):

Target: T1, Dimer of Gag-Pol polyprotein [489-587] (Human immunodeficiency virus 1, UniProt P12497)
T1 construct: 489-587
Test: Protease Inhibition Assay
Settings: pH 5.5; 37 °C
Source text: The IC50 value is the inhibitor concentration that results in 50% of HIV-1 protease activity measured by a spectrophotometric assay using a chromophoric peptide.

SMILES	Ki [nM]
O=C1N(Cc2ccc(CO)cc2)[C@H](Cc2ccccc2)[C@H](O)[C@@H](O)[C@@H](Cc2ccccc2)N1Cc1ccc(CO)cc1 [(4R,5S,6S,7R)-4,7-dibenzyl-5,6-dihydroxy-1,3-bis({[4-(hydroxymethyl)phenyl]methyl})-1,3-diazepan-2-one]	< 1
O=C1N(Cc2ccc(CO)cc2)[C@H](COc2ccccc2)[C@H](O)[C@@H](O)[C@@H](COc2ccccc2)N1Cc1ccc(CO)cc1 [(4R,5S,6S,7R)-5,6-dihydroxy-1,3-bis({[4-(hydroxymethyl)phenyl]methyl})-4,7-bis(phenoxymethyl)-1,3-diazepan-2-one]	< 1
